This note sets out measurements from PubChem BioAssay (NCI).

Among the test systems are EKVX NSCLC; SN12C renal; HL-60(TB) leukemia; OVCAR-4 ovarian; HOP-92 NSCLC; SR leukemia; NCI-H226 lung; HCT-15 colon; U251 CNS; NCI/ADR-RES ovarian.
Assay in all cases: growth of human tumour cells (NCI), 48 h

Where “and” joins values, the source holds several entries; their conditions need not be identical. Equal entries are not always repeated.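 Cells were grown in 96-well plates and exposed to each compound for 48 hours at five concentrations; endpoints were interpolated linearly between bracketing concentrations, or set to the highest concentration if not reached. The concentration for 50% growth inhibition is given as GI50. TGI: concentration producing complete growth inhibition.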

Regarding `CCCCCCNC(=O)Oc1ccc(/C(=C(\C)c2ccccc2)c2ccc(OCCN(CC)CC)cc2)cc1`, the GI50 was 6.02 µM with EKVX NSCLC; 4.93 µM with SN12C renal; 0.524 µM in the assay on HL-60(TB) leukemia; 5.46 µM with OVCAR-4 ovarian; 2.59 µM with HOP-92 NSCLC; 1.09 µM in the assay with SR leukemia. The GI50 with NCI-H226 lung is 6.67 µM; in the assay with HCT-15 colon, 1.31 µM; in the assay on U251 CNS it was 2.41 µM; in the assay on NCI/ADR-RES ovarian it was 5.47 µM. For the same compound, the TGI with EKVX NSCLC came out at 12.5 µM; with SN12C renal, 10.9 µM; in the assay with HL-60(TB) leukemia, 5.2 µM; in the assay on OVCAR-4 ovarian, 11.9 µM; in the assay with HOP-92 NSCLC, 9.16 µM; in the assay with SR leukemia it was 3.18 µM. For the same compound, the TGI in the assay on NCI-H226 lung was 14.3 µM; in the assay on HCT-15 colon it was 3.68 µM; with U251 CNS it was 8.15 µM; with NCI/ADR-RES ovarian it was 11.9 µM.
As to `Cc1ccc2c(c1)C(=O)c1c-2n(CCCN=[N+]=[N-])c(=O)c2cc([N+](=O)[O-])ccc12`, the GI50 is above 100 µM with EKVX NSCLC; 59.4 µM in the assay with SN12C renal; 22 µM in the assay with HL-60(TB) leukemia; 14 µM in the assay with OVCAR-4 ovarian; 30.2 µM with HOP-92 NSCLC; 8.21 µM in the assay on SR leukemia. Also, the GI50 in the assay on NCI-H226 lung was above 100 µM; with HCT-15 colon, above 100 µM; in the assay on NCI/ADR-RES ovarian, 94 µM. Further, the TGI in the assay with EKVX NSCLC was above 100 µM; in the assay with SN12C renal it was above 100 µM; in the assay on HL-60(TB) leukemia, above 100 µM; in the assay on OVCAR-4 ovarian, 74.2 µM; with HOP-92 NSCLC, above 100 µM; in the assay on SR leukemia, 63.1 µM. The TGI in the assay on NCI-H226 lung, with HCT-15 colon and in the assay on NCI/ADR-RES ovarian was above 100 µM in each case.
Turning to `COc1ccc(NC(=O)/C=C(C)/C=C/C=C(C)\C=C\C2=C(C)CCCC2(C)C)cc1`, the GI50 in the assay on EKVX NSCLC was 79 µM; in the assay with SN12C renal it was 97.3 µM; in the assay with HL-60(TB) leukemia, 2.13 µM; with OVCAR-4 ovarian it was 34.8 µM; in the assay with SR leukemia, 28.8 µM; in the assay on NCI-H226 lung, above 100 µM. In addition, the GI50 in the assay on HCT-15 colon was above 100 µM; with U251 CNS, above 100 µM; in the assay with NCI/ADR-RES ovarian it was 60.6 µM. The TGI with EKVX NSCLC was above 100 µM; with SN12C renal, above 100 µM; in the assay on HL-60(TB) leukemia, 16.1 µM; with OVCAR-4 ovarian it was above 100 µM; in the assay on HOP-92 NSCLC, 30.4 µM; with SR leukemia, 80.8 µM. Moreover, the TGI in the assay with NCI-H226 lung, in the assay on HCT-15 colon, in the assay on U251 CNS and in the assay with NCI/ADR-RES ovarian was above 100 µM each time.
In the case of `O=C(Nc1cc(-c2cccnc2)nc(NCCCN2CCOCC2)n1)c1cc(Br)cc(C(F)(F)F)c1`, the GI50 was 2.72 µM in the assay on EKVX NSCLC; 7.74 µM in the assay with SN12C renal; 2.15 µM in the assay on HL-60(TB) leukemia; 3.26 µM in the assay with OVCAR-4 ovarian; 1.97 µM in the assay on HOP-92 NSCLC; 2.6 µM in the assay on SR leukemia. Moreover, the GI50 with NCI-H226 lung is 9.3 µM; in the assay with HCT-15 colon, 1.92 µM; in the assay with U251 CNS it was 2.05 µM; in the assay with NCI/ADR-RES ovarian, 2.6 µM. In addition, the TGI is 14.4 µM in the assay on EKVX NSCLC; 21.8 µM in the assay with SN12C renal; 5.86 µM in the assay with HL-60(TB) leukemia; 14.5 µM in the assay with OVCAR-4 ovarian; 7.62 µM in the assay with HOP-92 NSCLC; 41.7 µM in the assay on SR leukemia. For the same compound, the TGI in the assay on NCI-H226 lung was determined as 22.7 µM; with HCT-15 colon, 5.28 µM; in the assay with U251 CNS, 4.3 µM; in the assay with NCI/ADR-RES ovarian it was 9.11 µM.
Turning to `CCOC(=O)/C(C#N)=C/Nc1ccc(-c2nc3ccccc3[nH]2)cc1`, the GI50 with EKVX NSCLC is 34.4 µM; with SN12C renal, 19.5 µM; in the assay on HL-60(TB) leukemia, 40.5 µM; in the assay with OVCAR-4 ovarian, 31.4 µM; in the assay with HOP-92 NSCLC, 42.1 µM; with SR leukemia, 40.8 µM. In addition, the GI50 with NCI-H226 lung was above 100 µM; in the assay with HCT-15 colon, 34.1 µM; in the assay on U251 CNS it was 23.2 µM; with NCI/ADR-RES ovarian it was 41.4 µM. Moreover, the TGI is above 100 µM in the assay on EKVX NSCLC; 55.6 µM in the assay on SN12C renal; 97.3 µM with HL-60(TB) leukemia; above 100 µM in the assay with OVCAR-4 ovarian; above 100 µM in the assay with HOP-92 NSCLC; above 100 µM with SR leukemia. Also, the TGI with NCI-H226 lung was above 100 µM; in the assay on HCT-15 colon, above 100 µM; with U251 CNS, 65.9 µM; in the assay on NCI/ADR-RES ovarian it was 66.1 µM.
As for `COc1cc(C2c3cc4c(cc3[C@@H](Nc3ccc(N)cc3)C3COC(=O)[C@H]23)OCO4)cc(OC)c1O` (some centres not stated), the GI50 is 0.953 µM in the assay on EKVX NSCLC; 0.492 µM in the assay with SN12C renal; 0.287 µM and 0.422 µM in the assay with HL-60(TB) leukemia; 0.495 µM in the assay on HOP-92 NSCLC; 0.151 µM in the assay on SR leukemia; 0.336 µM with NCI-H226 lung. Also, the TGI in the assay on EKVX NSCLC is 10.9 µM; in the assay with SN12C renal, 6.15 µM; with HL-60(TB) leukemia, 0.862 µM and 5.63 µM; in the assay on OVCAR-4 ovarian, 41.6 µM; with SR leukemia, 0.682 µM and 6.81 µM; in the assay with NCI-H226 lung, 0.868 µM and 4.7 µM. In addition, the TGI is 22.6 µM in the assay with HCT-15 colon, 4.2 µM in the assay with U251 CNS and 44.5 µM with NCI/ADR-RES ovarian.
Turning to `O=C1c2ccccc2-c2c1c1ccccc1c(=O)n2-c1ccccc1`, the TGI was above 100 µM with EKVX NSCLC; above 100 µM with SN12C renal; above 86.3 µM in the assay with HL-60(TB) leukemia; 19.2 µM with OVCAR-4 ovarian; above 50.3 µM with HOP-92 NSCLC; above 100 µM in the assay on SR leukemia. Besides, the TGI in the assay on NCI-H226 lung is 41.4 µM; in the assay on HCT-15 colon, above 100 µM; with U251 CNS, 39.9 µM; with NCI/ADR-RES ovarian, 40.8 µM.
For `CO[C@H](C(=O)O)[C@@H]1Cc2cc3cc(OC4CC(OC5CC(O)C(O)C(C)O5)C(O)C(C)O4)c(C)c(O)c3c(O)c2C(=O)[C@H]1OC1CC(OC2CC(OC3CC(C)(O)C(O)C(C)O3)C(O)C(C)O2)C(O)C(C)O1` (some centres not stated), the GI50 is 0.57 µM in the assay with EKVX NSCLC; 0.179 µM in the assay on SN12C renal; 1.06 µM in the assay on HL-60(TB) leukemia; 0.607 µM in the assay on OVCAR-4 ovarian; 0.0736 µM with HOP-92 NSCLC; 0.133 µM in the assay with SR leukemia. Besides, the GI50 was 0.126 µM in the assay on NCI-H226 lung, 1.66 µM with HCT-15 colon, 0.212 µM in the assay with U251 CNS and 10.1 µM in the assay with NCI/ADR-RES ovarian. Further, the TGI was above 32.5 µM in the assay with EKVX NSCLC; above 32.5 µM with SN12C renal; above 32.5 µM in the assay on HL-60(TB) leukemia; above 32.5 µM in the assay on OVCAR-4 ovarian; 22.6 µM with HOP-92 NSCLC; 8.37 µM with SR leukemia. Moreover, the TGI was 0.892 µM in the assay on NCI-H226 lung, above 32.5 µM in the assay with HCT-15 colon, above 32.5 µM in the assay on U251 CNS and above 32.5 µM with NCI/ADR-RES ovarian.
